Experimental data published in ChEMBL document CHEMBL4665905, “2-Amino-N-heteroaryl-nicotimamides as Na1.8 Inhibitors” (ACS Med Chem Lett, 2020).

Target: Sodium channel protein type 10 subunit alpha (Homo sapiens, UniProt Q9Y5Y9)
Experiment: Inhibition of human Nav1.8 expressed in HEK293 cells by whole cell patch clamp assay
Type: cell-based

Sequence of Sodium channel protein type 10 subunit alpha (Q9Y5Y9 whole entry): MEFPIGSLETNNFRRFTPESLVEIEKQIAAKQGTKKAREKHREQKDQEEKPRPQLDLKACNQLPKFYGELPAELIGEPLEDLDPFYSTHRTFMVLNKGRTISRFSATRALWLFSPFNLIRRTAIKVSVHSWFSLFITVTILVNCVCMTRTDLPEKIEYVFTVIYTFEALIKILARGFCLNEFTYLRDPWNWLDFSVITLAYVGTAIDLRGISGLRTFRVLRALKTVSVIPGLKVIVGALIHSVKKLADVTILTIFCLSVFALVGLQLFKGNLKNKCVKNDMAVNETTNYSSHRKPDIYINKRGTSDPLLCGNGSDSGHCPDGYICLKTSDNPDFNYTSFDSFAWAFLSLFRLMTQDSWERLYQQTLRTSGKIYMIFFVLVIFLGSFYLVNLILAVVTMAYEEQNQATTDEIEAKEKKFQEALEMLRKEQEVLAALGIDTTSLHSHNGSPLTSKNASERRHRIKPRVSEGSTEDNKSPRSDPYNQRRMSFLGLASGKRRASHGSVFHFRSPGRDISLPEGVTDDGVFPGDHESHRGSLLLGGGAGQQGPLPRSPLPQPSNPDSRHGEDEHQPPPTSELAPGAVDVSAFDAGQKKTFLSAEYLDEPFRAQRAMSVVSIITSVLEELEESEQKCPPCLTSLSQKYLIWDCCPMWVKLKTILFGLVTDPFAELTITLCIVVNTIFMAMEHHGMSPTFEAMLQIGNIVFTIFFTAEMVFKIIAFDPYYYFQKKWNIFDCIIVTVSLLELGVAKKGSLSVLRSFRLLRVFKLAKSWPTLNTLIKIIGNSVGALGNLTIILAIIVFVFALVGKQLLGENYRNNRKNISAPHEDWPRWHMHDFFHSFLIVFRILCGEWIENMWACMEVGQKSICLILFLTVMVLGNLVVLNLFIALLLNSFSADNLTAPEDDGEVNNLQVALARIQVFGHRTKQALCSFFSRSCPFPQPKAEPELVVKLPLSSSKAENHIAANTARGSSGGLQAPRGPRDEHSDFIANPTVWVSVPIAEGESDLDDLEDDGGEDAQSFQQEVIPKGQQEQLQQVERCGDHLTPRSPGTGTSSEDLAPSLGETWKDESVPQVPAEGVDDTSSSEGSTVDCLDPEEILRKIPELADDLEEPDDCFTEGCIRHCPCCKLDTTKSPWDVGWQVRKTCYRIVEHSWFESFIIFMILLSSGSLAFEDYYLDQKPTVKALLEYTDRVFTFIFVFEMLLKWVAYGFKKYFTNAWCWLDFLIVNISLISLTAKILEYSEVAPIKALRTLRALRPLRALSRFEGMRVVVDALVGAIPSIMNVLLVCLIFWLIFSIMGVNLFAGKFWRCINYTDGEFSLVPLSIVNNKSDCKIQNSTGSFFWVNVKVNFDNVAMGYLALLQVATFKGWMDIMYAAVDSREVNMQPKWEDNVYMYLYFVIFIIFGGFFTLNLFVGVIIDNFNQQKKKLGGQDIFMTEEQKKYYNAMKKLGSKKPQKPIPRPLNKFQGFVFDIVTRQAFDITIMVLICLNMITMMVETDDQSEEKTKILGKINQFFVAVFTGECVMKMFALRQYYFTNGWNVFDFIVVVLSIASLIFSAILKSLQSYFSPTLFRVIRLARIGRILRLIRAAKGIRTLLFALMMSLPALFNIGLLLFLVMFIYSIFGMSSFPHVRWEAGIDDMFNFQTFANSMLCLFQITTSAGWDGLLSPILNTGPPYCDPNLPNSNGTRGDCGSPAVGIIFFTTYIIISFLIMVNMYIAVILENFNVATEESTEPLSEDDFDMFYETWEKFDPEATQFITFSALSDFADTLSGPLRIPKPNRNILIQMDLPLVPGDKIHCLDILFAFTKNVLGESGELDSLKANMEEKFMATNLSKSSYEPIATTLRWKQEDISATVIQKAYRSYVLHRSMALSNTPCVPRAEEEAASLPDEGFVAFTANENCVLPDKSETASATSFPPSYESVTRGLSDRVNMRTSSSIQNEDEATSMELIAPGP

Structure (SMILES): NS(=O)(=O)c1cc(NC(=O)c2cc(Cl)cnc2N2CCCC(F)(F)CC2)ccn1
- IC50: 3.9 nM
